Patent publication US12421257B2, “Compositions and methods for inhibiting group II intron RNA” (YALE UNIVERSITY, priority 2018, dated 2025)
Values after ≈ are worked out from the molar mass of the structure shown.

Columns and labels:
[1] = tested on: HEK-293T cells; assay: Cytotoxicity in HEK-293T cells (Cell Titer Glo); type: cell-based, human; conditions: Homo sapiens, cytotoxicity, 24 hours with compound, read-out: IC50 HEK-293
Procedure: HEK-293T cells were cultured in Dulbecco's Modified Eagle's Medium (DMEM) (Gibco) supplemented with 10% Fetal Bovine Serum (FBS, Gibco) and 100 U/ml of Penicillin-Streptomycin (Gibco) at 37° C. and 5% CO2. For the cytotoxicity experiments, cells were aliquoted into black 96-well plates with a clear bottom (Corning 3603) at a concentration of 10,000 cells per well. The cells were grown at 37° C., 5% CO2 for 5-6 hours, then the medium was replaced with the same medium without FBS and cells were grown at 37° C., 5% CO2 for 24 hours. Freshly prepared stock solutions of test compounds (12.8 mg/ml in DMSO) were serially diluted 1:2 with DMSO into the first 11 successive wells of a 12-well row on a 96-well plate as described above. Well 12 was used as a growth control (no compound). […] After incubation, cell viability was determined using the luminescent Cell Titer Glo cell viability assay (Promega), in which 100 μl of the assay reagent was added to each well of the assay plate. After gentle shaking for 7-10 minutes, the plates were analyzed on a Synergy H1 plate reader (BioTek). Luminescence was plotted against the compound concentration and IC50 values were determined by fitting the data to a 4-parameter logistic function c+(d−c)/(1+(x/a)^b), where a is the IC50, b is the slope parameter, c is the minimum response and d is the maximum response. Experiments were replicated to ensure reproducibility.

[2] = tested on: C. parapsilosis; assay: MIC determination against C. parapsilosis; type: cell-based, Candida parapsilosis; conditions: Lodderomyces parapsilosis; RPMI-1640, 35° C. or 37° C., turbidity after 24 and 48 hours
Procedure: Minimal inhibitory concentrations (MICs) for C. parapsilosis were determined in a final volume of 100 μl. Fresh stock solutions of control antifungal drugs (Amphotericin B and Itraconazole) and of test compounds were prepared at 3.2 mg/ml and at 12.8 mg/ml respectively in DMSO. After placing the stock in the first well, solutions of test compounds and antifungal controls were serially diluted 1:2 with DMSO into the first […] successive wells of a 12-well row on a 96-well plate (as described above). After dilution, 2.5 μl from each of these 10 wells were transferred onto a separate 96-well plate and diluted with 122.5 μl of RPMI-1640 medium (Sigma). Wells 11 and 12 contained 2.5 μl DMSO and 122.5 μl of RPMI-1640 as a positive growth control (no compound) and sterility control (no inoculum added). A 50 μl volume was taken from each of the RPMI dilutions (wells 1-12) and transferred to the wells of a third 96-well plate (assay plate), where they were mixed with an equal volume (50 μl) of freshly prepared inoculum of C. parapsilosis in RPMI-1640 medium, set at a density to provide the 0.5×10^3 to 2.5×10^3 colony forming units per 1 mL (except for the sterility control). Sterility control was mixed with 50 μl of sterile medium.
The final concentration range of the assay was 0.25-128 μg/ml for test compounds and 0.0625-32 μg/ml for Amphotericin B and Itraconazole. The final concentration of DMSO was 1%. The assay plate was incubated at 35° C. or 37° C. and visually analyzed for turbidity after 24 and 48 hours of incubation. The lowest compound concentration at which no growth was apparent is reported as the MIC. All experiments were performed in triplicate.

[3] = tested on: ai5γ group II intron (D135 ribozyme); assay: Fluorescent D135 ribozyme cleavage assay (IC50); type: biochemical, Saccharomyces cerevisiae; conditions: D135 ribozyme cleavage of substrate 17/2 DL, 100 mM MgCl2, 500 mM KCl, 37° C., 10 minutes
Procedure: The D135 ribozyme (Su et al., 2005, Nucleic Acids Res, 33:6674-6687), fluorescently labeled oligo substrate 17/2 DL (FIG. 1A-FIG. 1D) (both at 20 nM final concentrations in 50 mM MOPS, pH 7.0, 100 mM MgCl2, 0.5M KCl), and the test compounds (final concentration of 10 μM in 50 mM MOPS, pH 7.0, 100 mM MgCl2, 0.5M KCl) were aliquoted onto black non-binding 384-well plates (Corning 3757) using the multidrop combi (ThermoFisherScientific) and pintool (V & P Scientific). The reaction mixtures were incubated at 37° C. for 45 minutes, then the reaction was quenched with 100 mM EDTA and fluorescence intensity was analyzed on a Tecan Infinite multimode plate reader (λex 520 nm, λem 560 nm, 5 nm bandwidth). Data were normalized to untreated wells and wells lacking the D135 ribozyme, and percent of inhibition was calculated using ActivityBase (IDBS). The Z′-factor was calculated as described (Zhang et al., 1999, J Biomol Screen, 4:67-73): Z′=1−3×(σp+σn)/|μp−μn|, • where μp and σn are mean value and standard deviation for the positive control (substrate only), and where μn and σn are mean value and standard deviation for the negative control (no compound). The average Z′-factor from the screen was 0.83±0.03. IC50 Measurement for the Small Molecule Inhibition of the D135 Ribozyme Cleavage Reaction.
Black 96-well plates (Corning 3695) were filled with 50 μl of solution containing 20 nM D135 ribozyme, 20 nM double-labeled substrate 17/2 DL and small molecule inhibitor in 50 mM MOPS, pH 7.0, 100 mM MgCl2 and 500 mM KCl. Small molecule inhibitors were tested at 19 different concentrations ranging from 5 nM to 1 mM. Plates were incubated at 37° C. for 10 minutes, then reaction mixtures were quenched with 100 mM EDTA and analyzed on the Synergy H1 plate reader (BioTek). Each experiment was performed in triplicate. Data were fit to a 4-parameter logistic function c+(d−c)/(1+(x/a)^b), where a is the IC50, b is the slope parameter, c is the minimum response and d is the maximum response. Data are reported as average±s.e.m

SMILES	MIC [2]	IC50 [3]	IC50 [1]
COc1cc(/C=C2\Oc3cc(O)cc(O)c3C2=O)cc(OC)c1OC [APY-003]	> 128 µg/mL	> 500 µM	> 64 µg/mL
COc1cc(/C=C2\Oc3cc(O)cc(O)c3C2=O)cc(OC)c1 [APY-012]	> 128 µg/mL	> 500 µM	–
O=C1/C(=C/c2cc(O)c(O)c(O)c2)Oc2ccccc21 [APY-024, (Z)-2-(3,4,5-Trihydroxybenzylidene)benzofuran-3(2H)-one]	8 µg/mL (≈ 29.6 µM)	–	23 ± 2 µg/mL
O=C(N/N=C/c1cc(F)c(O)c(F)c1)c1cc(O)c(O)c(O)c1 [APY-031]	32 µg/mL (≈ 98.7 µM)	6.3 µM	47.8 µg/mL
O=C(N/N=C/c1ccc(O)cc1)c1cc(O)c(O)c(O)c1 [APY-032]	8 µg/mL (≈ 27.8 µM)	10.6 µM	4.14 µg/mL
O=C(N/N=C/c1ccc(O)cc1Cl)c1cc(O)c(O)c(O)c1 [APY-033]	8 µg/mL (≈ 24.8 µM)	6.5 µM	50 µg/mL
O=C(N/N=C/c1ccc(O)c(Cl)c1)c1cc(O)c(O)c(O)c1 [APY-034]	8 µg/mL (≈ 24.8 µM)	4.7 µM	54.5 µg/mL
COc1cc(/C=N/NC(=O)c2cc(O)c(O)c(O)c2)cc(OC)c1O [APY-035]	4 µg/mL (≈ 11.5 µM)	7.7 µM	39.3 µg/mL
COc1cc(/C=N/NC(=O)c2cc(O)c(O)c(O)c2)cc(O)c1OC [APY-036]	4 µg/mL (≈ 11.5 µM)	7.7 µM	10.4 µg/mL
O=C(N/N=C/c1cccc(O)c1O)c1cc(O)c(O)c(O)c1 [APY-037]	8 µg/mL (≈ 26.3 µM)	3.7 µM	5.4 µg/mL
O=C(N/N=C/c1cccc(O)c1)c1cc(O)c(O)c(O)c1 [APY-040]	8 µg/mL (≈ 27.8 µM)	9.9 µM	30.1 µg/mL
COc1ccc(/C=N/NC(=O)c2cc(O)c(O)c(O)c2)cc1OC [APY-041]	8 µg/mL (≈ 24.1 µM)	3.8 µM	49.5 µg/mL
COc1cccc(/C=N/NC(=O)c2ccc(O)c(O)c2)c1O [APY-054]	> 128 µg/mL	> 500 µM	> 64 µg/mL
O=C(N/N=C/c1cncnc1)c1cc(O)c(O)c(O)c1 [APY-057]	16 µg/mL (≈ 58.3 µM)	12.9 µM	39.4 µg/mL
COc1ccc(/C=C/C=N/NC(=O)c2cc(O)c(O)c(O)c2)cc1 [APY-058]	4 µg/mL (≈ 12.2 µM)	10.1 µM	23 µg/mL
O=C(c1cc(O)c(O)c(O)c1)c1cc2ccccc2o1 [APY-068, Benzofuran-2-yl(3,4,5-trihydroxyphenyl)methanone]	16 µg/mL (≈ 59.2 µM)	–	1.3 ± 0.3 µg/mL
O=C(c1cc(O)c(O)c(O)c1)N1CCc2ccccc2C1 [APY-085]	32 µg/mL (≈ 112 µM)	6.4 µM	18.7 µg/mL
O=C(c1cc(O)c(O)c(O)c1)N1CCC(c2ccccc2)C1 (stereo not drawn) [APY-086]	64 µg/mL (≈ 214 µM)	61 µM	43.7 µg/mL
O=C(c1cc(O)c(O)c(O)c1)N1CCC(c2ccccc2)CC1 [APY-087]	32 µg/mL (≈ 102 µM)	79 µM	8.4 µg/mL
O=C(c1cc(O)c(O)c(O)c1)N1CCC(c2noc3cc(F)ccc23)CC1 [APY-088]	16 µg/mL (≈ 43 µM)	24 µM	6.55 µg/mL
CCN(CC)Cc1ccc(-c2ccc(-c3nc(-c4cc(O)c(O)c(O)c4)cs3)cc2)cc1 [APY-092]	16 µg/mL (≈ 35.8 µM)	1.3 µM	24.8 µg/mL
CCCCNS(=O)(=O)c1ccc(-c2ccc3oc(C(=O)c4cc(O)c(O)c(O)c4)cc3c2)cc1 [APY-094, N-Butyl-4-{2[(3,4,5-trihydroxyphenyl)carbonyl]-1-benzofuran-5-yl}benzene-1-sulfonamide]	8 to 16 µg/mL (≈ 16.6 to 33.2 µM)	–	15 ± 4 µg/mL
O=C(c1cc(O)c(O)c(O)c1)c1cc2cc(-c3ccc(C(=O)NC4CCCC4)c(Cl)c3)ccc2o1 [APY-095]	4 to 8 µg/mL (≈ 8.13 to 16.3 µM)	–	2.5 µg/mL
CCN(Cc1ccccc1)C(=O)c1ccc(-c2ccc3oc(C(=O)c4cc(O)c(O)c(O)c4)cc3c2)cc1 [APY-096]	2 to 4 µg/mL (≈ 3.94 to 7.88 µM)	–	1.4 µg/mL
CS(=O)(=O)c1ccc(C(=O)c2cc3cc(-c4ccc(CO)cc4)ccc3o2)cc1 [APY-099]	> 128 µg/mL	> 1000 µM	8.2 µg/mL
O=C(c1ccc([N+](=O)[O-])cc1)c1cc2cc(-c3ccc(CO)cc3)ccc2o1 [APY-100]	> 128 µg/mL	> 1000 µM	> 128 µg/mL

More lines, main results first:

MIC [2]	IC50 [3]	SMILES	IC50 [1]
8 µg/mL (≈ 25 µM)	46 ± 2 µM	Oc1cc(-c2csc(-c3ccc(Cl)cc3)n2)cc(O)c1O [NED-2014]	0.6 µg/mL
16 to 32 µg/mL (≈ 50.9 to 102 µM)	> 1000 µM	O=C(c1cc(O)c(O)c(O)c1)N1CCN(c2ccccc2)CC1 [NED-2015]	4.4 µg/mL
4 µg/mL (≈ 12.2 µM)	> 1000 µM	Oc1cc(-c2nc3ccc(C(F)(F)F)cc3s2)cc(O)c1O [NED-2016]	1.5 µg/mL
16 to 32 µg/mL (≈ 50.9 to 102 µM)	> 1000 µM	O=C(O)c1ccc2oc(C(=O)c3cc(O)c(O)c(O)c3)cc2c1 [NED-2017]	–
32 to 64 µg/mL (≈ 76.7 to 153 µM)	> 1000 µM	Cc1ccc(NC(=O)c2ccc3oc(C(=O)c4cc(O)c(O)c(O)c4)cc3c2)c(C)c1 [NED-2021, N-(2,4-dimethylphenyl)-2-(3,4,5-trihydroxybenzoyl)benzofuran-5-carboxamide]	–
16 µg/mL (≈ 37.7 µM)	52 ± 12 µM	CC(C)N1CCN(C(=O)c2ccc3oc(C(=O)c4cc(O)c(O)c(O)c4)cc3c2)CC1 [NED-2022, (4-isopropylpiperazin-1-yl)(2-(3,4,5-trihydroxybenzoyl)-benzofuran-5-yl)methanone]	–
8 µg/mL (≈ 22.1 µM)	6 ± 1 µM	COc1cc(/C=N/NC(=O)c2cc(O)c(O)c(O)c2)cc(OC)c1OC [NED-2039, (E)-3,4,5-trihydroxy-N′-(3,4,5-trimethoxybenzylidene)benzohydrazide]	–
32 µg/mL (≈ 77 µM)	12 ± 4 µM	CCN(CC)CCNC(=O)c1c(C)[nH]c(/C=C/C(=O)c2cc(O)c(O)c(O)c2)c1C [NED-2041]	–
16 µg/mL (≈ 37.4 µM)	> 1000 µM	Cc1[nH]c(/C=C/C(=O)c2cc(O)c(O)c(O)c2)c(C)c1C(=O)N1CCC(N(C)C)CC1 [NED-2042]	–
16 to 32 µg/mL (≈ 86.9 to 174 µM)	77 ± 3 µM	NNC(=O)c1cc(O)c(O)c(O)c1 [NED-2047, 3,4,5-trihydroxybenzohydrazide]	–
16 to 32 µg/mL (≈ 57.5 to 115 µM)	–	O=C(N/N=C/C1CCCCC1)c1cc(O)c(O)c(O)c1 [NED-2251, (E)-N′-(cyclohexylmethylene)-3,4,5-trihydroxybenzohydrazide]	–
